Test results published in patent US20200017771A1, “MEANS AND METHODS FOR LIGNIN PYROLYSIS” (UNIVERSITAET DES SAARLANDES, priority 2017, published 2020).
Where two headings read alike, the source gives them in different places.

Columns and labels:
[1] = test system: catechol dioxygenase (CatA); assay: Substrate specificity of catechol dioxygenase in cell extract; type: biochemical, Amycolatopsis species ATCC 39116; conditions: for Specific activity: 20 μM substrate, MA formation at 260 nm
Experimental: The cells were harvested by centrifugation, washed in 60 mM Tris-HCl buffer (pH 8.2), and disrupted in pre-packed lysis tubes (0.1 mm silica spheres, Lysing Matrix B, MP Biomedicals, Heidelberg, Germany), using three intervals of disruption in a ribolyzer (Precellys-24, Peq Lab, Hannover, Germany, 3×30 s, 6 m s^−1) with […] on ice in between. Removal of cell debris and protein quantification was performed as previously described (Becker et al., 2009. Appl. Environ. Microbiol. 75, 7866-9). […] The reaction was monitored on-line via the change in absorbance at 260 nm, reflecting the accumulation of MA (c=16,800 M^−1 cm^−1) (Jimenez et al., 2014. Microbiol. 16, 1767-78). […] Controls without cell extract and without substrate were included.
Subsequently, GC-MS analysis of pure MA and of lyophilized culture supernatant from a culture on o-cresol was conducted. […] It was now interesting to see, how this product was actually derived.

[2] = test system: Corynebacterium glutamicum LIMA-1; type: cell-based; conditions: glucose as growth substrate; 24 hours
Experimental: C. glutamicum was grown at 1 mL-scale in a micro bioreactor (BioLector I, m2plabs, Baesweiler, Germany), using 48-well flower plates. […] All cultures were conducted as biological triplicate.
A set of growth experiments was conducted to study potential inhibitory effects of the compounds involved on growth of the producing strains.

[3] = test system: Corynebacterium glutamicum LIMA-1; assay: Kinetics and stoichiometry of MA production from aromatics, batch shake flask, LIMA-1; type: cell-based
Experimental: (§1) C. glutamicum was grown in baffled shake flasks with 10% filling volume at 30° C. and 230 rpm on an orbital shaker (Multitron, Infors AG, Bottmingen, Switzerland, 5 cm shaking diameter). The cultivation procedure involved one pre-culture in complex medium (37 g L^−1 BHI) followed by another pre-cultivation and then by the main cultivation, both in minimal medium (Kind et al., 2013. Metab. Eng. 15, 184-95.), which contained the following salts and vitamins per liter: NaCl, 0.055 g CaCl2.H2O, 0.2 g MgSO4.7H2O, 15 g (NH4)2SO4, 24.98 g K2HPO4, 7.7 g KH2PO4, 20 mg FeSO4.7 H2O, 0.5 mg biotin, 1 mg thiamine.HCl, 30 mg 3,4-dihydroxybenzoic acid and 10 mL of a 100× trace element solution (Vallino and Stephanopoulos., 1993. Biotechnol. Bioeng. 41, 633-646). […] The different medium ingredients were combined at room temperature freshly before use. The pH was kept constant at 7.0±0.2 by manual addition of 2 M NaOH. All cultures were conducted as biological triplicate.
(§2) A diode array detector was used for detection of MA (260 nm) and the aromatics (210 nm). The quantification of glucose was carried out by isocratic HPLC (Agilent 1260 Infinity Series, Waldbronn, Germany). The separation was conducted on an Aminex HPX-87H column (300×7.8 mm; Bio-Rad, Munich, Germany) at 55° C. As mobile phase, 3.5 mM H2SO4 was used at a flow rate of 0.8 mL min^−1. The refraction index was used for detection. The concentration of cell dry mass (CDM) was calculated from the measured optical density (OD660) using a correlation factor of CDM (g/L)=0.32×OD660 (Rohles et al., 2016. Microb. Cell Fact. 15, 154). The exact monitoring of the cell concentration during the intracellular metabolite sampling and the above correlation allowed to relate the obtained metabolite levels to the CDM (μmol gCDM^−1). The correlation between the cytoplasmic volume and the CDM (1.95 mL gCDM^−1) was used to express intracellular concentrations in mM (Gutmann et al., 1992. Biochim. Biophys. Acta. 1112, 115-23).

[4] = molecular target: catechol-1,2-dioxygenase (CatA) (Corynebacterium glutamicum, UniProt Q8NN11); assay: Catechol-1,2-dioxygenase (CatA) activity and kinetics in crude cell extracts; type: biochemical
Experimental: Crude cell extracts were prepared from exponentially growing cells by mechanical cell disruption. Cell harvest was carried out as previously described (Buschke et al., 2011. Biotechnol. J. 6, 306-17). Aliquots of 1 mL cell suspension were transferred into FastPrep-24 vials (MP Biomedicals, Illkirch-Graffenstaden, France), containing silica beads (Ø 0.1 mm). Cell disruption was carried out in 2×30 sec cycles at 5,000 rpm (Precellys-24, Peqlab, Hannover, Germany), including a 5 minute cooling pause on ice. The extract was also chilled on ice after the disruption. Removal of cell debris and protein quantification was performed as previously described (Becker et al., 2009. Appl. Environ. Microbiol. 75, 7866-9). […] The formation of MA (c=[…]) was monitored via the change in absorbance at 260 nm (Guzik et al., 2013. Int. J. Gen. Mol. Microbiol. 103, 1297-1307). […] The kinetic parameters of the enzyme were obtained by fitting the experimental data to the Michaelis-Menten type kinetic equation (OriginLab, Northhampton, Mass., USA). The protein content in the crude cell extract was quantified, using bovine serum albumin as standard (Pierce BCA Protein Assay Kit, Thermo Fisher Scientific).

[5] = test system: Amycolatopsis sp. ATCC 39116; assay: Utilization of aromatics as sole source of carbon (growth, OD600); type: cell-based; conditions: 2 mM substrate as sole source of carbon in mineral salt medium; OD600 after 40 hours
Experimental: For genetic engineering work, E. coli strains were grown in liquid Luria-Bertani (LB) medium or on solid LB medium, which additionally contained 20 g L^−1 agar (Becton Dickinson, Heidelberg, Germany). For conjugation, A. species ATCC 39116 was grown in liquid GYM medium, containing per liter: 4 g glucose, 4 g yeast extract (Becton Dickinson), and 10 g malt extract (Becton Dickinson). For sporulation and for cloning purposes, solid GYM medium, additionally containing 20 g L^−1 agar (Becton Dickinson), was used. For the pre-culture and the main culture in growth and production studies, a mineral medium (pH 7.2) was used, which contained per liter: 4.5 g Na2HPO4*7H2O, 3.0 g (NH4)2SO4, 1.0 g KH2PO4, 200 mg NaCl, 200 mg MgSO4.7H2O, 50 mg CaCl2.2H2O, 2 mg ZnSO4.7H2O, 1.2 mg MnCl2.4H2O, 0.4 mg CoCl2.6H2O, 0.2 mg NaMoO4.2H2O, 0.2 mg CuSO4.5H2O. […] For direct MA production from pre-treated lignin, appropriate amounts of the obtained hydrolysate (see below) were added. For plasmid maintenance, kanamycin (50 μg mL^−1) or apramycin (50 μg mL^−1) were added, respectively, when needed. In addition, 5-Bromo-4-chloro-1H-indol-3-yl β-D-gluco-pyranosiduronic acid (X-Gluc) was added to selection agar plates (40 μg mL^−1) for blue white screening.
(§3) Amycolatopsis was cultivated in baffled shake flasks, filled to 10% with liquid medium. Single colonies from agar plates, incubated for 24 h at 37° C., were used as inoculum for the first pre-culture. From there, cells were harvested during the exponential growth by centrifugation (5 min, 8800 xg, and 37° C.), and used afterwards as inoculum for the main culture. All shake flask cultivations were conducted in triplicate at 37° C. and 230 rpm on an orbital shaker (Multitron, Infors AG, Bottmingen, Switzerland).
The wildtype was cultivated in minimal medium on a range of aromatics, reflecting a spectrum of potential lignin-derivable raw materials.

[6] = test system: Corynebacterium glutamicum LIMA-2; assay: Kinetics and stoichiometry of MA production from catechol, batch shake flask, LIMA-2; type: cell-based; conditions: only 10 mM catechol
Experimental: as §1, §2

[7] = test system: Amycolatopsis sp. ATCC 39116; assay: Growth of wildtype on guaiacol as sole source of carbon; type: cell-based
Experimental: as §3
The cell concentration was determined in duplicate as optical density at 600 nm (OD600). The cell dry mass (CDM) was determined gravimetrically in triplicate. In short, 20 mL culture broth was filtered (Whatman cellulose filter, Grade 3, GE-Healthcare Life Sciences, Little Chalfont, UK), washed three times, and dried to constant weight (HB43-S, Mettler-Toledo, Columbus, Ohio, UA). The correlation factor was CDM [g L^−1]=0.45×OD600.
The capability to use guaiacol was found most relevant, given the huge importance of the aromatic as the dominant building block of softwood lignin, and was therefore studied now in more detail. The wildtype was found robust and tolerated elevated levels of guaiacol. Concentrations up 25 mM were utilized (FIG. 25). […] On a quantitative basis, MA reached a level of 0.3 mM, which represented about 5% of the initially added guaiacol. […]

[8] = LIMA-1, initial 20 mM benzoate, 10 mM catechol, 5 mM phenol, glucose added
[9] = column LIMA-1, 10 mM catechol plus 2 mM benzoate as inducer

catechol-1,2-dioxygenase (CatA), sequence (Q8NN11 entry or part of it): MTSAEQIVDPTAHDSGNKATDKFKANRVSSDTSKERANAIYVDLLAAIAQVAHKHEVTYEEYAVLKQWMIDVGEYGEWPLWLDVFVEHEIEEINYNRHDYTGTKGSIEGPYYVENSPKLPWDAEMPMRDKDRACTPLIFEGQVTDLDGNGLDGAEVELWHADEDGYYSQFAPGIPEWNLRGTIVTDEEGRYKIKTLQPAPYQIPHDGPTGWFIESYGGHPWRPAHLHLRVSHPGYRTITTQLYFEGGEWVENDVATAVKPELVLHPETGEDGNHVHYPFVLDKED

Cc1cccc(O)c1O [3-Methyl catechol]
Specific activity [1]: 470 ± 9 mU mg^−1 | activity relative to that found for catechol ([1]; catechol replaced by equimolar substrate): about 70%

Cc1ccc(O)c(O)c1 [4-Methyl catechol]
accepted as substrate by the enzyme [1]: accepted | Specific activity [1]: 380 ± 5 mU mg^−1

O=C(O)c1ccccc1 [Benzoic acid]
level up to which the mutant grew (highest concentrations tested) [2]: ≤ 80 mM | YMA/Aro, MA yield [3]: 1.00 ± 0.02 mol mol^−1 | YX/Glc, biomass yield [3]: 0.46 ± 0.01 g/g | qGlc, specific glucose uptake rate [3]: 0.5 ± 0.0 mmol/g/h | qMA, specific MA production rate [3]: 3.3 ± 0.1 mmol/g/h | CatA activity of cells cultivated on the aromatic ([4]; LIMA-1 crude extract): 490 mU mg^−1 | fold higher CatA activity versus culture only on glucose ([4]; LIMA-1 crude extract): 16 fold | Growth [5]: +++ (OD > 1)

Oc1ccccc1O [Catechol]
Specific activity [1]: 640 ± 19 mU mg^−1 | Specific activity ([1]; listed as catechol): 640 mU mg^−1 | YMA/Aro, MA yield [6]: 1.00 ± 0.01 mol mol^−1 | YX/Glc, biomass yield [6]: 0.40 ± 0.02 g/g | qGlc, specific glucose uptake rate [6]: 0.4 ± 0.0 mmol/g/h | qMA, specific MA production rate [6]: 3.5 ± 0.1 mmol/g/h | YMA/Aro, MA yield [3, 8]: 0.99 ± 0.02 mol mol^−1 | YX/Glc, biomass yield [3, 8]: 0.38 ± 0.01 g/g | qGlc, specific glucose uptake rate [3, 8]: 0.3 ± 0.0 mmol/g/h | qMA, specific MA production rate [3, 8]: 0.2 ± 0.0 mmol/g/h | YMA/Aro, MA yield ([3]; LIMA-1, initial 20 mM benzoate, 10 mM catechol, 5 mM phenol, glucose added, listed as catechol): 1.00±0.01 mol mol^−1 | qGlc, specific glucose uptake rate [3, 9]: 0.7 ± 0.0 mmol/g/h | qMA, specific MA production rate [3, 9]: 5.2 ± 0.4 mmol/g/h | Km ([4]; read-out: KM-value for catechol, crude extract of benzoate-grown cells, Michaelis-Menten fit): 2.3 µM | Growth [5]: ++ (1 > OD > 0.5)

O=C(O)/C=C\C=C/C(=O)O [Cis,cis-muconic acid, (2Z,4Z)-2,4-Hexadienedioate]
Growth [5]: +++ (OD > 1)

COc1ccccc1O [Guaiacol]
specific growth rate ([7]; guaiacol as sole carbon source): 0.30 h⁻¹ | concentrations utilized (tolerated) up to ([7]; guaiacol as sole source of carbon, 24 hours): ≤ 25 mM | Growth [5]: ++ (1 > OD > 0.5)

Oc1ccccc1 [Phenol]
YMA/Aro, MA yield [3]: 0.95 ± 0.09 mol mol^−1 | YX/Glc, biomass yield [3]: 0.48 ± 0.01 g/g | qGlc, specific glucose uptake rate [3]: 0.6 ± 0.0 mmol/g/h | qMA, specific MA production rate [3]: 0.1 ± 0.0 mmol/g/h | Growth [5]: ++ (1 > OD > 0.5)

Cc1ccccc1 [Toluene]
Growth [5]: + (0.5 > OD > 0.25)

O=C(O)/C=C/c1ccc(O)cc1 [p-Coumaric acid]
Growth [5]: +++ (OD > 1)
